These results are taken from ChEMBL document CHEMBL1201862, “PubChem BioAssay data set” (2004).

Some test systems named below: SN12C; CAKI-1; MDA-MB-231; ACHN; EKVX; NCI/ADR-RES; COLO 205; A549; RPMI-8226; DU-145; M14; UO-31; NCI-H522; KM12; HOP-62; IGROV-1; HCT-116; NCI-H460; TK-10; HCT-15.
Assay in all cases: growth of human tumour cells (NCI), 48 h

The structures appear in SMILES notation.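 48-hour exposure; five concentrations; linearly interpolated endpoints. GI50: concentration for 50% inhibition of growth.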 The source made the active and inactive calls. No stated cut-off is given here; in the data, active = GI50 up to about 1.1 µM and inactive = higher.

For the molecule `COC(=O)CCC(C)C1CCC2C3CCC4CC5CCC4(C)C3(O5)C(Br)C(Br)C12C` (stereo not given), the GI50 in the assay on SN12C, in the assay with CAKI-1, in the assay with MDA-MB-231, in the assay on ACHN, in the assay on EKVX and in the assay on NCI/ADR-RES was > 100 µM (inactive) throughout. The GI50 in the assay on COLO 205 is > 100 µM (inactive); with A549 it was > 100 µM (inactive); in the assay with RPMI-8226 it was 67.6 µM (inactive); with DU-145 it was > 100 µM (inactive); in the assay with M14, > 100 µM (inactive); in the assay on UO-31, > 100 µM (inactive). Also, the GI50 in the assay with NCI-H522 is 48.2 µM (inactive); with KM12 it was > 100 µM (inactive); in the assay with HOP-62, > 100 µM (inactive); in the assay with IGROV-1, > 100 µM (inactive); with HCT-116 it was 78.9 µM (inactive); in the assay with NCI-H460 it was > 100 µM (inactive). Besides, the GI50 is > 100 µM (inactive) in the assay on TK-10 and more than 100 µM with HCT-15.
With `COc1cccc2c1C(=O)c1c(O)c3c(c(O)c1C2=O)C[C@@](O)(C(=O)CO)C[C@@H]3OC1CC(N2CCOCC2)C(O)C(C)O1` (stereo not given in full), the GI50 was 0.0156 µM (active) in the assay with SN12C; 0.00948 µM (active) with CAKI-1; 0.0551 µM (active) in the assay on MDA-MB-231; 0.00513 µM (active) in the assay with ACHN; 0.0159 µM (active) in the assay on EKVX; 0.00252 µM (active) in the assay with NCI/ADR-RES. Also, the GI50 in the assay on COLO 205 is 0.00325 µM (active); in the assay with A549, 0.00628 µM (active); in the assay with RPMI-8226, 0.0025 µM (active); in the assay with DU-145 it was 0.0497 µM (active); with M14, 0.0324 µM (active); in the assay on UO-31 it was 0.0025 µM (active). The GI50 was 0.0025 µM (active) in the assay on NCI-H522; 0.0246 µM (active) in the assay with KM12; 0.0199 µM (active) in the assay with HOP-62; 0.0131 µM (active) with IGROV-1; 0.0025 µM (active) in the assay with HCT-116; 0.0025 µM (active) in the assay on NCI-H460. Also, the GI50 in the assay with TK-10 was 0.0485 µM (active); in the assay on HCT-15, 0.00315 µM.
As to `COc1nc2cccc(C(O)c3ccccc3)c2nc1-c1ccccc1` (stereo not given), the GI50 with SN12C is 10.9 µM (inactive); in the assay on CAKI-1 it was 5.05 µM (inactive); with MDA-MB-231 it was 8.41 µM (inactive); in the assay with ACHN, 5.83 µM (inactive); in the assay on EKVX, 4.08 µM (inactive); in the assay with NCI/ADR-RES, 3.85 µM (inactive). In addition, the GI50 in the assay on COLO 205 is 4.68 µM (inactive); with A549, 4.88 µM (inactive); in the assay on RPMI-8226, 2.94 µM (inactive); in the assay with DU-145, 5.93 µM (inactive); in the assay with M14, 4.39 µM (inactive); with UO-31 it was 8.39 µM (inactive). Also, the GI50 is 8.95 µM (inactive) in the assay on NCI-H522; 6.04 µM (inactive) in the assay on KM12; 3.78 µM (inactive) in the assay on HOP-62; 5.09 µM (inactive) in the assay with IGROV-1; 3.97 µM (inactive) with HCT-116; 4.14 µM (inactive) in the assay with NCI-H460. The GI50 in the assay on TK-10 was 22.3 µM (inactive); in the assay on HCT-15, 4.43 µM.
In the case of `CC1CCC2N(C1)CC1C3(O)CC45OC6(O)C(O)CCC4(C)C6CCC5C3(O)CC(O)C1(O)C2(C)O` (stereo not given), the GI50 in the assay with SN12C, with CAKI-1, in the assay on MDA-MB-231, in the assay with ACHN, in the assay on EKVX and in the assay with NCI/ADR-RES was > 100 µM (inactive) each time. Further, the GI50 in the assay on COLO 205, with A549, in the assay on RPMI-8226, in the assay on DU-145, in the assay on M14 and with UO-31 was > 100 µM (inactive) in each case. Moreover, the GI50 in the assay on NCI-H522, in the assay on KM12, in the assay with HOP-62, in the assay with IGROV-1, in the assay with HCT-116 and with NCI-H460 was > 100 µM (inactive) each time. The GI50 with TK-10 was > 100 µM (inactive); in the assay on HCT-15 it was more than 100 µM.
